# Data taken from PubChem BioAssay (NCI).
#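 Following 48 hours of exposure in 96-well plates, responses at five concentrations were used to interpolate endpoints linearly. TGI is the concentration that stops growth completely.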
# Columns and labels:
# Experiment in all cases: NCI anticancer screen, dose series, 48 h
# HL-60(TB) leukemia = tested on: HL-60(TB) leukemia
# SF-295 CNS = tested on: SF-295 CNS
# SN12C renal = tested on: SN12C renal
# EKVX NSCLC = tested on: EKVX NSCLC
# NCI-H226 lung = tested on: NCI-H226 lung
# COLO 205 colon = tested on: COLO 205 colon
# MOLT-4 leukemia = tested on: MOLT-4 leukemia
# MDA-MB-231 breast = tested on: MDA-MB-231 breast
# PC-3 prostate = tested on: PC-3 prostate
# HCC-2998 colon = tested on: HCC-2998 colon
# U251 CNS = tested on: U251 CNS
# MDA-N = tested on: MDA-N
# NCI-H522 lung = tested on: NCI-H522 lung
SMILES,TGI (HL-60(TB) leukemia) [µM],TGI (SF-295 CNS) [µM],TGI (SN12C renal) [µM],TGI (EKVX NSCLC) [µM],TGI (NCI-H226 lung) [µM],TGI (COLO 205 colon) [µM],TGI (MOLT-4 leukemia) [µM],TGI (MDA-MB-231 breast) [µM],TGI (PC-3 prostate) [µM],TGI (HCC-2998 colon) [µM],TGI (U251 CNS) [µM],TGI (MDA-N) [µM],TGI (NCI-H522 lung) [µM]
CC(=O)NCCc1c[nH]c2ccc(Cl)cc12,> 100,> 100,> 100,> 100,> 100,> 100,> 100,> 100,> 100,> 100,> 100,> 100,> 100
O=C1NC(=O)C(C(c2ccc(Cl)cc2)C2C(=O)NC(=O)NC2=O)C(=O)N1,> 100,> 100,> 100,> 100,> 100,> 100,> 100,> 100,> 100,,> 100,> 100,> 100
Cc1cc2c(cc1C)[n+](=O)c(C(=O)N1CCN(c3ccc([N+](=O)[O-])cc3)CC1)c(C)n2[O-],> 100,31.6,> 100,87.4,,> 100,> 100,55.5,> 100,> 100,41.3,> 100,> 100
O=C1c2ccccc2C(=O)N1CCCCCCNOCCCN1C(=O)c2ccccc2C1=O,,> 100,> 100,> 100,> 100,> 100,38.7,> 100,> 100,> 100,> 100,> 100,79.3
CCOC(=O)c1cccc([N+](=O)[O-])c1N,> 100,> 100,> 100,> 100,> 100,> 100,> 100,> 100,> 100,> 100,> 100,> 100,> 100
CCCN(CCCCN1C(=O)c2ccccc2C1=O)CC1COc2ccccc2O1 (configuration not stated),95.9,> 100,> 100,> 100,> 100,> 100,66.5,> 100,> 100,> 100,> 100,> 100,> 100
CSc1nc2c(N)ncnc2n1C,,> 100,> 100,> 100,> 100,> 100,> 100,> 100,> 100,> 100,> 100,> 100,> 100
O=C(Nc1ccccc1C(=O)O)/C(=C/c1ccccc1)NC(=O)c1ccccc1,> 100,> 100,> 100,> 100,> 100,> 100,> 100,> 100,> 100,> 100,> 100,> 100,> 100
COc1cc2c(cc1OC)C1(c3ccccc3)CN(C2)Cc2cc(OC)c(OC)cc21,63.8,> 100,> 100,> 100,91.4,34.2,84.7,53.8,> 100,50.1,54.6,> 100,> 100
Cc1ccc(S(=O)(=O)Oc2ccc(OS(=O)(=O)c3ccc(C)cc3)c3c2C(=O)c2ccccc2C3=O)cc1,> 100,,> 100,> 100,> 100,> 100,> 100,> 100,> 100,> 100,> 100,> 100,> 100
OCC1OC(n2nc(-c3ccccc3)nc2-c2cnccn2)C(O)C1O (configuration not stated),> 100,> 100,> 100,> 100,,> 100,> 100,> 100,> 100,> 100,> 100,> 100,> 100
O=[N+]([O-])c1cccc2nc3ccccc3c(NCCCN3CCOCC3)c12,0.157,0.0854,0.0455,0.0559,0.0501,0.0303,24.2,0.0973,0.0684,,0.14,0.0149,0.0936
CN(C)CCNC(=O)c1cccc2nc3cccc(F)c3nc12,6.39,6.79,5.48,6.16,3.21,1.89,14.2,6.77,4.26,4.31,6.61,3.13,2.74
COP1(=O)NCc2ncccc2O1 (configuration not stated),,> 100,> 100,> 100,> 100,> 100,> 100,> 100,> 100,> 100,> 100,> 100,
O=P1(Oc2ccc(Cl)cc2)OCCS1 (configuration not stated),> 100,> 100,> 100,> 100,> 100,> 100,,> 100,> 100,> 100,> 100,> 100,> 100
O=C(/C=C(\Nc1ccccc1O)c1ccccc1)C(=O)NC12CC3CC(CC(C3)C1)C2,> 10,> 10,> 10,> 10,> 10,> 10,> 10,> 10,> 10,> 10,> 10,> 10,> 10
COc1cc(C(N)=O)cc(NC(=O)/C=C/c2ccccc2)c1OC,> 100,> 100,> 100,> 100,,> 100,> 100,> 100,> 100,> 100,> 100,> 100,> 100
CCOC(=O)c1cc2c([nH]1)C(=O)CC1=C2CCN1Cc1ccccc1,54.1,34.2,35.3,37.4,32.3,31.8,17,28.8,47.2,,25.4,26.8,38.5
